US20070027143A1, “Novel substituted 2,3-benzodiazepine derivatives” (priority 2003, published 2007)
Where two headings read alike, the source gives them in different places.

Key:
CD1 mice [1] = assay: Anti-tremor effect, harmaline induced tremor; type: in vivo; settings: po., Litchfield-Wilcoxon, limits in brackets
CD1 mice [2] = assay: Anticonvulsant activity, maximal electroshock seizure (MES) test; type: in vivo; settings: Mus musculus, po.
CD1 mice [3] = assay: Anticonvulsant activity, 4-aminopyridine induced seizures; type: in vivo; settings: Mus musculus; po.; read-out: 4-AP ED50
In short: (§1)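 Oral dosing, 3 doses, 10 male CD1 mice/dose; convulsant given usually 60 min post-dose; endpoints clonic-tonic seizures and lethality.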

BN rats = assay: Airway eosinophilia of ovalbumin sensitized, antigen challenged BN rats (BALF eosinophil count); type: in vivo; settings: 3.0 mg/kg po, 2 hours pre-challenge, mean ± SE
From the text: Bronchial hyperresponsiveness (BHR) and airway eosinophilia (AEP) are characteristic features of bronchial asthma. BHR is typified by an exaggerated response to a wide variety of stimuli that can induce an increased resistance to airflow in the airways. AEP is a result of prolonged eosinophil infiltration, mast cell, and T cell activation in the airways. In actively (e.g., ovalbumin) immunized rats (e.g., Brown Norway [BN] strain), repeated sensitization followed by antigenic challenge results in lung eosinophilia and bronchial hyperresponsiveness to different spasmogens (e.g., acetylcholine). This is the most frequently employed model for studying potential anti-asthmatic effects of new chemical entities.
BN rats were actively immunized with allergen (ovalbumin). On day one, rats were sensitized with the subcutaneous administration of ovalbumin suspended in Al(OH)3 (2.5 μg ovalbumin +20 mg Al(OH)3 in 0.5 ml saline). Booster injections (same dose and same route) were given at day 14 and 21. Simultaneously at each occasion 0.25 ml of Bordatella pentussis vaccine was injected intraperitoneally. On day 28, animals were challenged by inhalation of the antigen (vaporized 1% OVA solution for 1 hour). Test compounds were administered orally 2 hours pre-challenge.
48 hours following challenge, they were sacrificed by an overdose of urethane (4-5 ml of 15% urethane given i.p.), bronchoalveolar lavage fluid (BALF) was obtained, and tracheae dissected from the animals. Eosinophil cell count (cells/ml BALF) was determined manually using a selective stain for eosinophils and counting the cells in a Buerker chamber. BHR was determined using tracheal rings suspended in an organ bath. After an equilibration period of 30 minutes, cumulative concentration response curves to acetylcholine were determined. Maximal response of control (unchallenged, non-treated) tracheal rings is obtained at 10^−3 M acetylcholine. The height of this response is defined as 100%. All other contractions are expressed as a percentage and related to the control response.

CD1 mice [4] = assay: Anticonvulsant activity, bicuculline induced seizures; type: in vivo; settings: Mus musculus; po.; read-out: Bicuculline ED50
In short: as §1

Lewis rats = assay: Autoimmune encephalomyelitis model, neurological (clinical) symptoms; type: in vivo; settings: for Neurological symptoms (change, %) / change in vivo at 30 mg/kg: 30 mg/kg ip.; for Neurological symptoms (change, %): day 24 after immunization; for change in vivo at 15 mg/kg / change in vivo at 30 mg/kg: Rattus norvegicus, ip, read-out: Neurological symptoms (change compared to controls, %); for change in vivo at 15 mg/kg: 15 mg/kg ip.
epilepsy patients = settings: Bialer et al.; cited from earlier work
CD1 mice [5] = assay: Anticonvulsant activity, strychnine induced seizures; type: in vivo; settings: Mus musculus; po.; read-out: Strychnine ED50
In short: as §1

For `CC(=O)N1N=C(c2ccc(N)cc2)c2cc3c(cc2C[C@H]1C)OCO3` [GYKI 53773, (R)-7-acetyl-5-(4-aminophenyl)-8,9-dihydro-8-methyl-7H-1,3-dioxolo[4,5-h][2,3]benzodiazepine, reference compound], the “ED50, tremor induced by Harmaline 40 mg/kg ip.” value (CD1 mice [1]) was 9.0(−7.4-10.9) mg/kg po, the ED50 (CD1 mice [2]; 0.5 h, 30′, read-out: MES 30′ ED50) was 4.9 mg/kg and the ED50 (CD1 mice [2]; 1 h, 60 min before induction, read-out: MES (MES 60′) ED50) was 8.6 mg/kg. For the same molecule, the ED50 (CD1 mice [3]) was 8.4 mg/kg, the BALF eosinophil number (BN rats) was 1.29 ± 0.11 ×10^6/ml and the ED50 (CD1 mice [4]) was 14.6 mg/kg. For the same molecule, the “Neurological symptoms (change, %)” value (Lewis rats; female rats) was −41%, the “Neurological symptoms (change, %)” value (Lewis rats; male rats) was −26% and the change in vivo at 15 mg/kg (Lewis rats; female rats, 0-8 day) was -60%. It also gave a change in vivo at 15 mg/kg (Lewis rats; female rats, 0-14 day) of -63%, a change in vivo at 15 mg/kg (Lewis rats; male rats, 0-8 day) of -8% and a change in vivo at 15 mg/kg (Lewis rats; male rats, 0-14 day) of 7%. The change in vivo at 30 mg/kg (Lewis rats; female rats, 0-8 day) was -38%, the change in vivo at 30 mg/kg (Lewis rats; female rats, 0-14 day) was -27% and the change in vivo at 30 mg/kg (Lewis rats; male rats, 0-8 day) was -43%. The change in vivo at 30 mg/kg (Lewis rats; male rats, 0-14 day) was -29%, the “Activity in clinical trials on epilepsy patients” value (epilepsy patients) was “active” and the ED50 (CD1 mice [5]) was 17.4 mg/kg.
